{"source": "patent US20180369327A1", "about": "“METHOD FOR TREATING OR PREVENTING OSTEOARTHRITIS” (Dong-A University Research Foundation for Industry-Academy …, priority 2017, published 2018)", "key": {"[1]": {"system": "HFD-induced cartilage destruction", "assay": "HFD-induced OA mouse model, histologic examination of cartilage", "assay_type": "in vivo", "settings": "mice fed HFD 25 weeks, cilostazol 30 mg/kg/day orally for the last 10 weeks; n=10", "protocol": "All procedures for animal study were approved by the Committee on Animal Investigations at Dong-A University (DIACUC-15-12). Seven-week-old male C57BL/6 mice were obtained from Samtoko (Osan, Korea). Mice were maintained in a temperature-controlled room (22° C.) on a 12:12 h light-dark cycle and free access to water and food. HFD-induced OA mouse model. Sixty mice were fed a normal chow diet for one week and then mice were fed an HFD or a SD for 25 weeks. Ten mice from each diet were used histologically examine the effect of high fat diet. Forty mice were used to examine the effect of cilostazol. Mice fed a SD or HFD for 15 weeks were orally administered cilostazol at concentrations of 30 mg/kg/day for additional 10 weeks. SD+vehicle mice (n=10) were fed a SD and received DMSO. SD+cilostazol mice (n=10) were fed a SD and received cilostazol. HFD+vehicle mice (n=10) were fed a HFD and received DMSO. HFD+cilostazol mice (n=10) were fed a HFD and received cilostazol. Tissue preparation and histologic examination. Animals were killed by ether inhalation. Whole knee joints were removed by dissection, fixed in PBS (pH 7.4) containing 4% paraformaldehyde, decalcified in 12.5% EDTA, dehydrated, and embedded in paraffin blocks. Five-micrometer microsections were prepared and stained with hematoxylin and eosin and with Safranin O-fast green."}, "FSP27": {"system": "FSP27", "assay": "Immunohistochemistry of cartilage, FSP27-positive cells, HFD-induced OA mouse model", "assay_type": "in vivo", "design": "reference not given here", "settings": "mice fed HFD, cilostazol 30 mg/kg/day orally 10 weeks; n=10", "protocol": "(§1) HFD-induced OA mouse model. Sixty mice were fed a normal chow diet for one week and then mice were fed an HFD or a SD for 25 weeks. Ten mice from each diet were used histologically examine the effect of high fat diet. Forty mice were used to examine the effect of cilostazol. Mice fed a SD or HFD for 15 weeks were orally administered cilostazol at concentrations of 30 mg/kg/day for additional 10 weeks. SD+vehicle mice (n=10) were fed a SD and received DMSO. SD+cilostazol mice (n=10) were fed a SD and received cilostazol. HFD+vehicle mice (n=10) were fed a HFD and received DMSO. HFD+cilostazol mice (n=10) were fed a HFD and received cilostazol. Immunohistochemical observation and analysis. Tissue sections were incubated in 1:70-diluted goat serum solution for 30 minutes at room temperature, and then for 2 hours with 1:100-diluted primary antibody at room temperature. Next, sections were incubated with secondary antibody for 1 hour at 37° C. and developed using ABC complex. […] Histological images were observed and analyzed using a Aperio ScanScope® CS system. Total numbers of positive for […]27 and STAMP2 in four fields per animal were counted by an observer blinded to the experiment and the percentage of positive cells were calculated."}, "[2]": {"system": "rat articular chondrocytes", "assay": "Total cytosol FFA content measurement", "assay_type": "cell-based", "settings": "cells treated with 1.6 mM palmitate and 0.4 mM oleate; n=4", "protocol": "Cell were collected after treatment with trypsin (0.2% trypsin, 0.02% EDTA and 0.2% glucose in PBS) and pelleted by centrifugation (200×g for 5 min at 4° C.). Cell pellet was resuspended in ice-cold hypotonic lysis medium containing 20 mM Tris-HCl, pH 7.4 and 1 mM EDTA. Cells were homogenized with a Dounce homogenizer and then centrifuged (800×g for 5 min at 4° C.). The post-nuclear supernatant fraction was ultra-centrifuged ([…] for 5 min at 4° C.) using Beckman Table-top ultracentrifuge. LD fraction with the distinct white band on the preparation was removed with a pipetman and LD-free cytosol was used for FFA measurement. Cytosol FFA levels were measured using a commercial free fatty acid quantification kit from Abcam (ab65341)."}, "STAMP2 [3]": {"system": "STAMP2", "assay": "Western blot of STAMP2 protein in articular chondrocytes", "assay_type": "cell-based, rat", "settings": "30 μM cilostazol, 1.5 mM oleate; n=4", "protocol": "(§2) Rat articular chondrocytes for primary culture were isolated from knee joint cartilage slices by enzymatic digestion for 1 h with 0.2% type II collagenase (381 units/mg) in DMEM. After the isolated cells were collected by brief centrifugation, they were resuspended in DMEM supplemented with 10% (v/v) FBS, […] streptomycin and 50 units/ml penicillin (Gibco). The cells were plated on culture dishes at a density of 5×10^4 cells/cm^2. The medium was replaced every 2 days, and they reached confluence after approximately 5 days in culture. In each experiment, the cells from three animals were pooled and analyzed three times. FFA were dissolved in absolute ethanol at a concentration of 500 mM and diluted to final concentrations of FFAs with the appropriate concentration of 1% (w/v) FFA-free BSA. Controls were incubated with equal concentrations of FFA-free BSA containing ethanol. […] Cell (2×10^6) were washed twice with ice-cold PBS. Cells were resuspended in lysis buffer [200 ll of icecold solubilizing buffer (300 mM NaCl, 50 mM Tris-Cl (pH 7.6), 0.5% Triton X-100, protease inhibitor cocktail)] and incubated at 4° C. for 30 min. The lysates were centrifuged at 14,000 rpm for 20 min at 4° C. The protein concentrations of the cell lysates were measured with the Bradford protein assay reagent (Bio-Rad). Then, 50 μg of proteins was loaded onto 15 SDS-PAGE. The separated proteins were transferred to nitrocellulose membranes (Amersham Pharmacia Biotech, Piscataway, N.J., USA) and probed with each antibody. Immunostaining with the antibodies was carried out using the Super Signal West Pico enhanced chemiluminescence substrate and detected with LAS-3000PLUS."}, "STAMP2 [4]": {"system": "STAMP2", "assay": "Immunohistochemistry of cartilage, STAMP2-positive cells, HFD-induced OA mouse model", "assay_type": "in vivo", "settings": "mice fed HFD, cilostazol 30 mg/kg/day orally 10 weeks; n=10", "protocol": "as §1"}, "PKCK2": {"system": "PKCK2", "assay": "Immunohistochemistry of cartilage, PKCK2-positive cells, HFD-induced OA mouse model", "assay_type": "in vivo", "settings": "mice fed HFD, cilostazol 30 mg/kg/day orally 10 weeks; n=10", "protocol": "as §1"}, "caspase-3 and -7": {"system": "caspase-3 and -7", "assay": "Western blot of apoptosis-related factors (caspase-3 and -7 activation)", "assay_type": "cell-based, rat", "settings": "30 μM cilostazol, 1.5 mM oleate; n=4", "protocol": "as §2, with “The lysates were centrifuged at 14,000 rpm for 20 min at 4° C.” left out, “Then, 50 μg of proteins was loaded onto 15 SDS-PAGE. The separated proteins were transferred to nitrocellulose membranes (Amersham Pharmacia Biotech, Piscataway, N.J., USA) and probed with each antibody.” left out"}}, "note": "“Also recorded” adds a separate entry of the source.", "data": [{"smiles": "O=C1CCc2cc(OCCCCc3nnnn3C3CCCCC3)ccc2N1", "note": "[cilostazol]", "values": [{"measurement": "HFD-induced cartilage destruction", "setting": "[1]", "result": "markedly prevented the HFD-induced cartilage destruction"}, {"measurement": "population of FSP27-positive cells", "setting": "FSP27", "result": "significantly increased"}, {"measurement": "FFA level in the cytosol", "setting": "[2]", "result": "significantly decreased the FFA level in the cytosol"}, {"measurement": "effect on oleate-induced downregulation of STAMP2", "setting": "STAMP2 [3]", "result": "completely reversed the downregulation of STAMP2 induced by oleate; also recorded: reversed the 1.5 mM oleate (O)-induced downregulation of STAMP2"}, {"measurement": "population of STAMP2-positive cells", "setting": "STAMP2 [4]", "result": "significantly increased"}, {"measurement": "population of PKCK2-positive cells", "setting": "PKCK2", "result": "significantly increased"}, {"measurement": "effect on oleate-induced activation of caspase-3 and -7", "setting": "caspase-3 and -7", "result": "prevented"}]}]}
